# Tests used:
# RAW264.7 [1] = assay: Antiosteoclast activity in mouse RAW264.7 cells assessed as inhibition of RANKL-induced osteoclast differentiation at 20 uM after 5 days by TRAP assay; assay type: functional; conditions: RAW264.7, 120 h
# RAW264.7 [2] = assay: Antiosteoclast activity in mouse RAW264.7 cells assessed as inhibition of RANKL-induced osteoclast differentiation at 2 uM after 5 days by TRAP assay; assay type: functional; conditions: RAW264.7, 120 h
SMILES,inhibition at 20 µM (RAW264.7 [1]) [%],inhibition at 2 µM (RAW264.7 [2]) [%]
CC1(C)CC[C@]2(C(=O)NC3CCN(Cc4ccccc4)CC3)CC[C@]3(C)C(=CC[C@@H]4[C@@]5(C)Cc6cn(S(=O)(=O)c7ccc(Cl)cc7)nc6C(C)(C)[C@@H]5CC[C@]43C)[C@@H]2C1,41.3,18.2
CC1(C)CC[C@]2(C(=O)O)CC[C@]3(C)C(=CC[C@@H]4[C@@]5(C)CC[C@H](O)C(C)(C)[C@@H]5CC[C@]43C)[C@@H]2C1 [OLEANOLIC_ACID],82.1,11.4
CC1(C)CC[C@]2(C(=O)NCc3ccccc3)CC[C@]3(C)C(=CC[C@@H]4[C@@]5(C)Cc6cnoc6C(C)(C)[C@@H]5CC[C@]43C)[C@@H]2C1,69.3,27.3
CC1(C)CC[C@]2(C(=O)O)CC[C@]3(C)C(=CC[C@@H]4[C@@]5(C)Cc6cn[nH]c6C(C)(C)[C@@H]5CC[C@]43C)[C@@H]2C1,99,32.1
CC1(C)CC[C@]2(C(=O)NCCCN3CCOCC3)CC[C@]3(C)C(=CC[C@@H]4[C@@]5(C)Cc6c[nH]nc6C(C)(C)[C@@H]5CC[C@]43C)[C@@H]2C1,100,49.8
CC1(C)CC[C@]2(C(=O)NCc3ccccc3)CC[C@]3(C)C(=CC[C@@H]4[C@@]5(C)Cc6cn(S(=O)(=O)c7ccc(Cl)cc7)nc6C(C)(C)[C@@H]5CC[C@]43C)[C@@H]2C1,0,0
COc1ccc(S(=O)(=O)n2cc3c(n2)C(C)(C)[C@@H]2CC[C@]4(C)[C@H](CC=C5[C@@H]6CC(C)(C)CC[C@]6(C(=O)NCCCN6CCOCC6)CC[C@]54C)[C@@]2(C)C3)cc1OC,50.9,34.4
CC1(C)CC[C@]2(C(=O)NCCN3CCCCC3)CC[C@]3(C)C(=CC[C@@H]4[C@@]5(C)Cc6cnoc6C(C)(C)[C@@H]5CC[C@]43C)[C@@H]2C1,100,78.5
CC1(C)CC[C@]2(C(=O)NC3CCN(Cc4ccccc4)CC3)CC[C@]3(C)C(=CC[C@@H]4[C@@]5(C)Cc6cnoc6C(C)(C)[C@@H]5CC[C@]43C)[C@@H]2C1,99.6,17.6
CC1(C)CC[C@]2(C(=O)NCCCN3CCOCC3)CC[C@]3(C)C(=CC[C@@H]4[C@@]5(C)Cc6cn(S(=O)(=O)c7ccc(Cl)cc7)nc6C(C)(C)[C@@H]5CC[C@]43C)[C@@H]2C1,56.1,20.6
Cc1noc(C)c1S(=O)(=O)n1cc2c(n1)C(C)(C)[C@@H]1CC[C@]3(C)[C@H](CC=C4[C@@H]5CC(C)(C)CC[C@]5(C(=O)NCCCN5CCOCC5)CC[C@]43C)[C@@]1(C)C2,100,75.2
CC1(C)CC[C@]2(C(=O)NC3CCN(Cc4ccccc4)CC3)CC[C@]3(C)C(=CC[C@@H]4[C@@]5(C)Cc6cn(S(=O)(=O)c7ccc(F)cc7)nc6C(C)(C)[C@@H]5CC[C@]43C)[C@@H]2C1,82.9,73
CC1(C)CC[C@]2(C(=O)NCCCN3CCOCC3)CC[C@]3(C)C(=CC[C@@H]4[C@@]5(C)Cc6cn(S(=O)(=O)c7ccc(C(C)(C)C)cc7)nc6C(C)(C)[C@@H]5CC[C@]43C)[C@@H]2C1,97.7,56.1
CC1(C)CC[C@]2(C(=O)NC3CCN(Cc4ccccc4)CC3)CC[C@]3(C)C(=CC[C@@H]4[C@@]5(C)Cc6cn(S(=O)(=O)c7ccc(Br)cc7)nc6C(C)(C)[C@@H]5CC[C@]43C)[C@@H]2C1,19.6,20.3
Cc1cccc(S(=O)(=O)n2cc3c(n2)C(C)(C)[C@@H]2CC[C@]4(C)[C@H](CC=C5[C@@H]6CC(C)(C)CC[C@]6(C(=O)NCCN6CCCCC6)CC[C@]54C)[C@@]2(C)C3)c1,100,33.6
CC1(C)CC[C@]2(C(=O)NCc3ccccc3)CC[C@]3(C)C(=CC[C@@H]4[C@@]5(C)Cc6c[nH]nc6C(C)(C)[C@@H]5CC[C@]43C)[C@@H]2C1,100,67.7

# Source: ChEMBL document CHEMBL3784938, “Novel heterocyclic ring-fused oleanolic acid derivatives as osteoclast inhibitors for osteoporosis” (Medchemcomm, 2016)
